According to US8461128B2, “Anti-microbial agents and uses thereof” (priority 2005, dated 2013):
In brackets after ≈: the same amount, converted by molar mass. Several values for one entry are separate records, joined by “and”; a condition that tells them apart may be missing. Identical values can stand only once. Like-named read-outs stand apart in the source and are kept apart here.

Experiments:
[1] = target: T1, YbtE (Yersinia pestis, UniProt Q56950); test: biochemical; type: biochemical
[2] = test system: M. tuberculosis H37Rv; test: microbe, parasite or virus in culture; type: cell-based, Mycobacterium tuberculosis
[3] = test system: Y. pestis KIM6-2082.1+; test: microbe, parasite or virus in culture; type: cell-based, Yersinia pestis
[4] = target: T1, YbtE; settings: cited from earlier work
[5] = target: T1, YbtE; test: biochemical
[6] = Isotopic stability in D2O (NMR); type: physicochemical; settings: room temperature
[7] = test system: MBT production in M. tuberculosis; type: cell-based, Mycobacterium tuberculosis
[8] = test system: M. tuberculosis H37Rv reference strain; settings: Wanger et al. 1996; cited from earlier work
[9] = test system: 92 Y. pestis strains; settings: cited from earlier work
[10] = Mycobacterium tuberculosis, H37RV

T1 sequence (Q56950 1-525): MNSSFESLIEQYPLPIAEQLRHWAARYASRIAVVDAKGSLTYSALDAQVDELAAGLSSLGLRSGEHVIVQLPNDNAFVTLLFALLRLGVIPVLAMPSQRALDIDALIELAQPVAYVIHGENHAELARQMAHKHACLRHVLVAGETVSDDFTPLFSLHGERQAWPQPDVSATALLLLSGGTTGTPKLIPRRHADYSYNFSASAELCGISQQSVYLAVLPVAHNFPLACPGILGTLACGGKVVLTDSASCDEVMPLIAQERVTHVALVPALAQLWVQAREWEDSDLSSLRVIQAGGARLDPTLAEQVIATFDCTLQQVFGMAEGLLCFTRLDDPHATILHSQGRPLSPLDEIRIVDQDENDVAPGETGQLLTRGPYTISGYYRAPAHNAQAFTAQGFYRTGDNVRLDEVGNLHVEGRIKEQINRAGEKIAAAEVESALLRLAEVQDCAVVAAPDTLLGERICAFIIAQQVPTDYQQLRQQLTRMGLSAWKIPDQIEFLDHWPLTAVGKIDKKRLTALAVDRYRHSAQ

`O=C(NS(=O)(=O)OC[C@H]1O[C@@H](n2ccc3ccccc32)[C@H](O)[C@@H]1O)c1ccccc1O` [salicyl-IRMS, β-indolyl 5′-O—(N-salicylsulfamoyl)ribose] gave an IC50 ([1]; IC50) of 0.021 µM, an IC50 [2, 10] greater than 200 µM and an MIC90 [2, 10] greater than 200 µM. For the same compound, the IC50 ([3]; Yersinia pestis) was greater than 500 µM and the MIC90 ([3]; Yersinia pestis) was greater than 500 µM.

In the case of `Nc1ncnc2c1ncn2[C@@H]1O[C@H](COS(=O)(=O)NC(=O)c2ccc(O)cc2)[C@@H](O)[C@H]1O` [4-hydroxybenzoyl-AMS], the IC50 ([1]; IC50) is reported as > 0.08 µM and 6 µM, the IC50 [2] is reported as 110 µM and the IC50 [2, 10] is reported as greater than 200 µM. The MIC90 [2, 10] was greater than 200 µM.

For `Cc1cccc(O)c1C(=O)NS(=O)(=O)OC[C@H]1O[C@@H](n2cnc3c(N)ncnc32)[C@H](O)[C@@H]1O` [6-methylsalicyl-AMS], the IC50 ([1]; IC50) was 0.023 µM.

In the case of `O=C(O)c1ccccc1O` [salicylate], the Km ([4]; read-out: Km salicylate) is listed as 4.6 µM and the Km ([5]; read-out: Km salicylate) is listed as 5.4 µM.

For `CC(OS(=O)(=O)NC(=O)c1ccccc1O)[C@H]1O[C@@H](n2cnc3c(N)ncnc32)[C@H](O)[C@@H]1O` (mixture of isomers) [(RS)-5′-methyl-salicyl-AMS], the IC50 ([1]; IC50) was 0.009 µM.

For `Nc1ncnc2c1ncn2[C@@H]1O[C@H](COS(N)(=O)=O)[C@@H](O)[C@H]1O` [AMS, 5′-O-Sulfamoyladenosine, reference compound], the inhibition of salicylation [1] was “did not inhibit salicylation”, the IC50 [2] was 39 µM and 43 µM and 55 µM and the IC50 [2, 10] was 35 µM. For the same compound, the MIC90 [2, 10] was roughly 100 µM (≈ 34.6 µg/mL) and the inhibition of adenylation [5] was “did not inhibit adenylation”.

For `Nc1ncnc2c1ncn2[C@@H]1O[C@H](COS(=O)(=O)NC(=O)c2ccccc2)[C@@H](O)[C@H]1O` [benzoyl-AMS], the IC50 ([1]; IC50) was 0.004 µM and 0.012 µM, the IC50 [2] was 105 µM and 133 µM and the MIC90 [2, 10] was greater than 200 µM. It also gave an IC50 [3] of 500 µM and an MIC90 ([3]; Yersinia pestis) greater than 500 µM.

With `Nc1ncnc2c1ncn2[C@@H]1O[C@H](COS(=O)(=O)NC(=O)c2ccccc2O)[C@@H](O)[C@H]1O` [salicyl-AMS, 5′-O—[N-(salicyl)sulfamoyl]-adenosine] the “isotopically stable in D2O” value [6] was no less than 54 days, the IC50 ([1]; IC50) was 0.0145 µM and 0.009 µM and the IC50 ([1]; read-out: IC50) was 0.0479 µM. For the same compound, the “increase of IC50, iron-supplemented vs iron-deficient” value [2] was 18 fold, the MIC ([2]; Mycobacterium tuberculosis, H37RV, read-out: MIC95, growth inhibition) was 268 µM (≈ 125 µg/mL) and the MBT production [7] was “virtually undetectable”. The IC50 [5] was 0.01 to 0.015 µM, the Kd [5] was no more than 0.001 µM and the Ki [5] was 0.00035 ± 0.00027 µM. For the same compound, the “slope of IC50 versus YbtE concentration” value [5] was 0.43, the “slope of IC50 versus YbtE concentration, corrected” value [5] was 0.52 and the IC50 ([5]; read-out: IC50, inhibition of adenylation activity) was 0.0147 ± 0.002 µM. The Ki ([5]; read-out: Ki (non-competitive with respect to salicylate)) was 0.00108 ± 0.00098 µM, the activity on growth [3] was “not active” and the IC50 ([3]; Yersinia pestis, read-out: IC50, bacterial growth in iron-limiting media) was 25 to 52 µM. It also gave an IC50 ([3]; Yersinia pestis, read-out: IC50, growth inhibition) of roughly 50 µM, an MIC ([3]; Yersinia pestis, read-out: MIC95, growth inhibition) of 96.7 µM (≈ 45.1 µg/mL) and an IC50 ([3]; read-out: IC50, growth inhibition) of 51.2 ± 4.7 µM.

For `NS(=O)(=O)OC[C@H]1O[C@@H](n2ccc3ccccc32)[C@H](O)[C@@H]1O` [IRMS], the IC50 ([1]; IC50) was greater than 20 µM, the IC50 [2, 10] was greater than 200 µM and the MIC90 [2, 10] was greater than 200 µM.

For `Nc1ncnc2c1ncn2[C@@H]1O[C@H](COP(=O)(O)OP(=O)(O)OP(=O)(O)O)[C@@H](O)[C@H]1O` [ATP], the Km ([4]; read-out: Km ATP) is listed as 350 µM and the Km ([5]; read-out: Km ATP) is listed as 172 µM.

For `COc1ccccc1C(=O)NS(=O)(=O)OC[C@H]1O[C@@H](n2cnc3c(N)ncnc32)[C@H](O)[C@@H]1O` [2-methoxybenzoyl-AMS], the IC50 ([1]; IC50) was > 0.08 µM and 0.065 µM, the IC50 [2, 10] was greater than 200 µM and the MIC90 [2, 10] was greater than 200 µM.

For `CC(=O)Oc1ccccc1C(=O)NS(=O)(=O)OC[C@H]1O[C@@H](n2ccc3ccccc32)[C@H](OC(C)=O)[C@@H]1OC(C)=O` [2′,2″,3′-triacetylsalicyl-IRMS], the IC50 ([1]; IC50) was 1.8 µM, the IC50 [2] was 25 µM and 22 µM and 33 µM and 31 µM and 35 µM and the IC50 [2, 10] was 24 µM. The MIC90 [2, 10] was roughly 50 µM (≈ 28.7 µg/mL) and the MIC90 ([3]; Yersinia pestis) was roughly 500 µM (≈ 287 µg/mL).

With `Nc1ncnc2c1nc1n2[C@@H]2O[C@H](COS(=O)(=O)NC(=O)CCCCC1)[C@@H](O)[C@H]2O` [cyclo-hexanoyl-AMS] the IC50 ([1]; IC50) was greater than 40 µM.

For `[H]/N=C(/N)N[C@H]1[C@H](O)[C@@H](O)[C@H](O[C@@H]2O[C@@H](C)[C@](O)(C=O)[C@H]2O[C@@H]2O[C@@H](CO)[C@H](O)[C@@H](O)[C@@H]2NC)[C@@H](N/C(N)=N\[H])[C@@H]1O` [streptomycin], the MIC [8] is given as 0.4 to 1.7 µM and the MIC [9] is given as 2.6 to 6.9 µM.

`Nc1ncnc2c1ncn2[C@H]1CC[C@@H](COS(=O)(=O)NC(=O)c2ccccc2O)O1` [salicyl-ddAMS] showed an MIC90 [2, 10] of roughly 200 µM (≈ 86.9 µg/mL).

Compound `CC(=O)NS(=O)(=O)OC[C@H]1O[C@@H](n2cnc3c(N)ncnc32)[C@H](O)[C@@H]1O` [acetyl-AMS] has an IC50 ([1]; IC50) greater than 400 µM.

For `Nc1ncnc2c1nc1n2[C@@H]2O[C@H](COS(=O)(=O)NC(=O)CCCC#C1)[C@@H](O)[C@H]2O` [cyclo-hexynoyl-AMS], the IC50 ([1]; IC50) was greater than 40 µM.

Compound `CC(=O)O[C@@H]1[C@H](OC(C)=O)[C@@H](COS(=O)(=O)NC(=O)c2ccccc2O)O[C@H]1n1cnc2c(N)ncnc21` [2′,3′-diacetyl-salicyl-AMS] has an MIC90 [2, 10] greater than 200 µM.

Work on `CC(=O)O[C@@H]1[C@H](OC(C)=O)[C@@H](COS(=O)(=O)NC(=O)c2ccccc2O)O[C@H]1n1ccc2ccccc21` [2′,3′-diacetylsalicyl-IRMS] yielded an IC50 ([1]; IC50) of 3.9 µM, an IC50 [2, 10] greater than 200 µM and an MIC90 [2, 10] greater than 200 µM. It also gave an IC50 ([3]; Yersinia pestis) greater than 200 µM and an MIC90 ([3]; Yersinia pestis) greater than 200 µM.

For `Nc1ccc(C(=O)O)c(O)c1` [p-aminosalicylic acid, reference compound], the IC50 [2] was 0.08 µM, the iron-deficient media selectivity [2] was “do not exhibit iron-deficient media selectivity” and the IC50 [2, 10] was 0.09 µM. The MIC90 [2, 10] was 0.78 µM (≈ 0.119 µg/mL).

For `Nc1ncnc2c1ncn2[C@H]1C[C@H](O)[C@@H](COS(=O)(=O)NC(=O)c2ccccc2O)O1` [salicyl-dAMS], the IC50 ([1]; IC50) was 0.008 µM and 0.014 µM.

With `NNC(=O)c1ccncc1` [isoniazid, reference compound] the IC50 [2] was 0.11 µM and 0.08 µM and 0.1 µM, the MIC90 [2] was 0.16 µM (≈ 0.0219 µg/mL) and the IC50 [2, 10] was 0.12 µM. It also gave an MIC90 [2, 10] of 0.2 µM (≈ 0.0274 µg/mL).
